We go through one compound from patent US20250339462A1, “CANCER TREATMENT USING ULTRA-HIGH CONCENTRATION GASEOUS NITRIC OXIDE AND A CHECKPOINT INHIBITOR” (Beyond Air, Inc., priority 2022, published 2025).

Assay [1] has as its system 4T1 tumor-bearing mice. Nature of the assay: 4T1 breast cancer model, UNO/Anti-PD-1 Single Dose Study. The assay is classed as in vivo, mouse. The note with it: single-dose of UNO alone 50,000 ppm 10 min (FIG. 12A). How it is done:
Preparation of 4T1 cells: Cancer cell suspension, in Hanks' Balanced Salt Solution (HBSS) (Biological Industries, Israel), at a concentration of 5.0×10^6 cells/ml was freshly prepared on the day of the cancer model induction. Cells were grown to a 70-80% confluency and harvested using trypsin. The cells were centrifuged at 1,200 revolutions per minute (rpm)—241 G for 8 minutes, then the pellet was re-suspended in 1 ml of HBSS. The cells were counted using an automated cell counter and a suspension with a concentration of 5.0×10^6 cells/ml was prepared. Cell viability must be above 90% before cell inoculation to the mice, otherwise new cells will need to be prepared. […]
UNO and N2 treatment—On the day of treatment, mice were anesthetized by an intraperitoneal (i.p.) injection of 100 mg/kg of ketamine and 10 mg/kg of xylazine hydrochloride solution. […] After treatment, all mice were warmed and closely monitored until complete recovery was observed. […]
Anti-mPD-1 dosing started one day after UNO treatment. […] The primary tumor volume was assessed using a digital caliper using a standard formula. In addition, mice survival was evaluated. Mice were routinely weighed and monitored for health conditions using mouse distress scoring. Mice reaching a tumor volume of ≥1500 mm3 and/or a score of 12 were humanely euthanized, and the time of death was recorded.

Assay [2] relates to 4T1 tumor-bearing mice. The experiment in a line: 4T1 breast cancer model, UNO/Anti-CTLA-4 Repeated dose study. Type of assay: in vivo, mouse. As for the experimental part:
Preparation of 4T1 cells: Cancer cell suspension, in Hanks' Balanced Salt Solution (HBSS) (Biological Industries, Israel), at a concentration of 5.0×10^6 cells/ml was freshly prepared on the day of the cancer model induction. Cells were grown to a 70-80% confluency and harvested using trypsin. The cells were centrifuged at 1,200 revolutions per minute (rpm)—241 G for 8 minutes, then the pellet was re-suspended in 1 ml of HBSS. The cells were counted using an automated cell counter and a suspension with a concentration of 5.0×10^6 cells/ml was prepared. Cell viability must be above 90% before cell inoculation to the mice, otherwise new cells will need to be prepared. At the point of inoculation, cells will be at passage 8 at most. The cell suspension was then aspirated into a 1 ml syringe with a 27 G needle, for subcutaneous (s.c.) injection. All injection volume was used and was not re-introduced into the stock solution.
Inoculation of 4T1 cancer cells to mice—Cancer cell suspension at a concentration of 5.0×10^6 cells/ml was inoculated to the right flank of animals at a volume of 100 μl per mouse. Female Balb/c mice were inoculated with 100 μl of 5.0×10^6 4T1 cells/ml. Administration was performed as soon as possible following cell preparation and after manual shaking prior to withdrawal of cell suspension. Injections were performed using a 1 ml syringe and a 27 G needle where withdrawal is done without the needle.
UNO and N2 treatment—On the day of treatment, mice were anesthetized by an intraperitoneal (i.p.) injection of 100 mg/kg of ketamine and 10 mg/kg of xylazine hydrochloride solution. Tumor-bearing mice were treated with either N2 or UNO at 50,000 ppm or 100,000 ppm. UNO at 50,000 ppm was administered intratumorally by a 23 G needle for 10 minutes, at 0.2 LPM and 2 bar exit pressure. UNO at 100,000 ppm was administered intratumorally by a 23 G needle for 2 minutes, at 0.2 LPM and 2 bar exit pressure. After treatment, all mice were warmed and closely monitored until complete recovery was observed.
Injection of anti-CTLA-4—Anti-CTLA-4 was administered up to 5 times intraperitoneally (i.p.) at a dose of 5 mg/kg, i.p., using a 1 ml syringe with a 27 G needle. The injection was administered to approximately the same location each time.
UNO/Anti-CTLA-4 Repeated dose study—Balb/c mice (60) were inoculated with mouse breast cancer carcinoma (4T1) cells injected subcutaneously (s.c.) to the right flank. […]
Primary tumor volume progression was monitored twice a week by measuring the tumor using a digital caliper calculated as: […]
Mice survival was evaluated. Mice that reached a tumor volume of ≥1500 mm^3 and/or a score of 12 were humanely euthanized, and the time of death was recorded. Metastases development was evaluated postmortem.

“Also recorded” adds a separate entry of the source.

As to `[N]=O` [UNO, nitric oxide], the “Primary tumors smaller compared to anti-mPD-1 alone” value with 4T1 tumor-bearing mice [1] stood at 13.2%. For the same compound, in the assay on 4T1 tumor-bearing mice [2] (FIG. 14C, Cox model), the “Survival hazard ratio vs anti-mCTLA-4” value was determined as 0.16 and the “Survival hazard ratio vs untreated” value is recorded as 0.31. For the same compound, in the assay on 4T1 tumor-bearing mice [2] (UNO twice (FIG. 14C)), the “Mice survival vs anti-mCTLA-4 monotherapy” value was “prolonged survival; also recorded: significantly prolongs mice survival”. The “Tumors smaller compared to only anti-mCTLA-4” value in the assay on 4T1 tumor-bearing mice [2] (only UNO, 100,000 ppm 2 min twice, day 13 after first UNO treatment, P=0.1158) is recorded as 12.9%.
